Measured values reported in US5030624A, “R-diastereomer of an N^6 -[(2-hydroxypropyl)aryl]adenosine and its medicinal uses” (G. D. Searle & Co., priority 1988, dated 1991).
Entries after “also recorded” stand apart in the source; their conditions may differ.

Assays:
[1] = test system: plasma renin activity (PRA); assay: Change in plasma renin activity (PRA) in the bilateral renal artery ligated rat; type: in vivo, rat (Sprague-Dawley); settings: 1 mg/kg I.V.; for prevention of PRA increases / inhibition of renin release (in words): 30 and 60 minutes; for CHANGE IN PRA: ^+ different from vehicle, p < .05
Procedure: Adenosine Al receptor stimulation will inhibit the release of renin from the kidney. A stimulus for the release of renin is renal ischemia. The ability of the compounds of the present invention to prevent an increase in PRA following renal ischemia was tested in rats with both renal arteries ligated. Sprague-Dawley rats were anesthetized with ether and the renal arteries were ligated. Three to five hours after anesthesia, arterial blood was sampled and compounds I and II were administered in polyethylene glycol at 1 mg/kg I.V. At 30 and 60 minutes after administration, arterial blood was sampled for PRA measurement by the method of Sealy, J. E. et al., Cardiovasc. Med. 2:1079, 1977.

[2] = test system: mice; assay: Behavioral toxicity at various times in mice; type: in vivo; as to MOTOR DEPRESSION: key: +: toxic symptom observed; +*: toxic symptom observed; *2/7; as to PTOSIS: key: +: toxic symptom observed; +*: toxic symptom observed; *2/7; as to RESPIRATORY DEPRESSION: key: +: toxic symptom observed; +*: toxic symptom observed; *2/7; as to loss of righting reflex: key: +: toxic symptom observed; +*: toxic symptom observed; *2/7
Procedure: The mice had previously been trained to remain on a rotating rod. After dosing, the percent of mice unable to remain on the rotating rod was determined. […] The mice were also observed at various time intervals for behavioral signs of toxicity.

[3] = test system: adenosine Al receptor in the granular juxtaglomerular cells of the kidney; settings: Federation Proceedings 44:879 & 1643, 1985; cited from earlier work
[4] = test system: hypertensive models; settings: Federation Proceedings 44:879 & 1643, 1985; cited from earlier work
[5] = test system: spontaneously hypertensive rats (SHR); assay: Effects on MAP and HR in conscious spontaneously hypertensive rats (SHR), I.V. or intragastric; type: in vivo, rat
Procedure: The effects of compounds I and II were tested intravenously or intragastrically in conscious spontaneously hypertensive rats (SHR). The rats were anesthetized with ether and the left carotid artery and right jugular vein were cannulated with polyethylene tubing. The rats were allowed three to five hours recovery from anesthesia for the I.V. studies and 12 to 18 hours for the oral studies. Mean arterial pressure (MAP, in mm/Hg) and heart rate (HR, beats/min.) were measured from the artery; intravenous administration of compounds was performed by injection into the vein. Oral administration was performed by gastric intubation. Compounds were dissolved in DMSO for I.V. studies and injected in volumes of 100 μl/kg or less (N=5 per compound). Doses were 3 to 1,000 μg/kg. Compounds were dissolved in polyethylene glycol for oral administration and injected in volumes of 1 ml/kg at a dose of 20 mg/kg/day for three days (N=3 to 6 per compound).
The resting MAP and HR for the SHR ranged between 160-200 mm Hg and 330/350 b/min., respectively.
Thus, the effects of the three compounds on MAP and HR were indistinguishable both by I.V. and oral administration.

[6] = test system: mice; assay: Ataxia on rotating rod in mice; type: in vivo; settings: ip, 0.5 or 3 hours
Procedure: Adenosine analogs tend to produce sedation and central nervous system depression which have prevented their therapeutic utility. The compounds of the invention, at doses which lower arterial pressure in the SHR, show no evidence of CNS depression. The ataxia produced by compounds of the present invention was measured in mice by injecting the compounds IP at doses of 32, 56, or 75 mg/kg in an aqueous suspension, n=7 per dose. The mice had previously been trained to remain on a rotating rod. After dosing, the percent of mice unable to remain on the rotating rod was determined. […] The mice were also observed at various time intervals for behavioral signs of toxicity.

[7] = Solubility of the separated diastereomers; type: physicochemical; settings: for solubility in MeOH (in words): S isomer and R isomer compared
[8] = SHR, 20 mg/kg/day intragastric, day 2 of oral administration, N=3 to 6

| SMILES | prevention of PRA increases / inhibition of renin release (in words) [1] | toxicity (in words) ([2]; 18-20 hours, 75 mg/kg ip) | MOTOR DEPRESSION ([2]; 0.5 hr, 75 mg/kg ip) | PTOSIS ([2]; 0.5 hr, 75 mg/kg ip) | RESPIRATORY DEPRESSION ([2]; 0.5 hr, 75 mg/kg ip) | MOTOR DEPRESSION ([2]; 3 hr, 75 mg/kg ip) | PTOSIS ([2]; 3 hr, 75 mg/kg ip) | RESPIRATORY DEPRESSION ([2]; 3 hr, 75 mg/kg ip) | solubility in MeOH (in words) [7] | further results |
| --- | --- | --- | --- | --- | --- | --- | --- | --- | --- | --- |
| OC[C@H]1O[C@@H](n2cnc3c(NCC(O)COc4cccc5ccccc45)ncnc32)[C@H](O)[C@@H]1O (mixture of isomers) [Compound I, N(6)-[2-hydroxy-3-(1-naphthyloxy)propyl]-adenosine] | prevented to the same extent | still producing several of the toxic symptoms | + | + | + | + | + | + | – | FLACCIDITY, animals affected (footnote) ([2]; 18-20 hr, 75 mg/kg ip): 2/7; MOTOR DEPRESSION ([2]; 18-20 hr, 75 mg/kg ip): +; PTOSIS ([2]; 18-20 hr, 75 mg/kg ip): +; RESPIRATORY DEPRESSION ([2]; 18-20 hr, 75 mg/kg ip): +; toxicity (in words) ([2]; 3 hours, 75 mg/kg ip): flaccidity and loss of righting reflex; FLACCIDITY ([2]; 3 hr, 75 mg/kg ip): +; LOSS OF RIGHTING REFLEX ([2]; 3 hr, 75 mg/kg ip): +; binding to the adenosine Al receptor, inhibition of renin release (in words) [3]: binds to the adenosine Al receptor in the granular juxtaglomerular cells of the kidney to inhibit release of renin into the plasma; arterial blood pressure and heart rate (in words) [4]: reducing arterial blood pressure and heart rate in hypertensive models |
| OC[C@H]1O[C@@H](n2cnc3c(NC[C@@H](O)COc4cccc5ccccc45)ncnc32)[C@H](O)[C@@H]1O [Compound II, N^6-[2R-hydroxy-3-(1-naphthalenyloxy)propyl]-adenosine] | prevented to the same extent | no toxicity was observed | + | + | + | + | + | + | more soluble in MeOH | ED (HR decrease by 100 b/min) ([5]; Rattus norvegicus, iv, conscious SHR, I.V. in DMSO, N=5 per compound, read-out: IV DOSE TO DECREASE HR by 100 b/min): 0.031 ± 0.0014 mg/kg; ED (MAP decrease by 40 mmHg) ([5]; Rattus norvegicus, iv, conscious SHR, I.V. in DMSO, N=5 per compound, read-out: IV DOSE TO DECREASE MAP by 40 mmHg): 0.033 ± 0.0012 mg/kg; MAXIMUM DECREASE AT 20 MG/KG ig: HR [5, 8]: 177 ± 19 b/min; MAXIMUM DECREASE AT 20 MG/KG ig: MAP [5, 8]: 50 ± 14 mmHg; CHANGE IN PRA ([1]; 30 minutes after dosing): -6.6 ngAI/ml/hr; CHANGE IN PRA ([1]; 60 minutes after dosing): -6.3 ngAI/ml/hr; ataxia / motor toxicity (in words) [6]: less ataxia at 0.5 or 3 hours as compared to compound I; also recorded: less motor toxicity than compound I; overall toxicity compared with compound I (in words) ([2]; mice, ip, ataxia and behavioral toxicity): substantially less toxic than compound I; also recorded: unexpectedly less toxic than compound I, both with regard to ataxia and behavioral toxicity; also recorded: less central nervous system toxicity than the racemic mixture; solubility (in words) ([7]; R diastereomer, solvent not stated): different solubility |
| OC[C@H]1O[C@@H](n2cnc3c(NC[C@H](O)COc4cccc5ccccc45)ncnc32)[C@H](O)[C@@H]1O [S isomer] | – | – | – | – | – | – | – | – | less soluble in MeOH | – |
